From US10189843B2, “Fused pyrazole derivative having autotaxin inhibitory activity” (The University of Tokyo, priority 2014, dated 2019)

Molecular target: T1, Human autotaxin enzyme (Homo sapiens, UniProt Q13822)
T1 construct: purchased R&D System
Test: Evaluation of autotaxin inhibitor, Method C (18:0 Lyso PC substrate, choline assay, Resorufin fluorescence)
Format: biochemical
Settings: Method C (Test Example 3), read-out: Inhibitory activity (enzyme inhibitory activity, IC50)
Method: Test Example 3 (Method C) Evaluation of Autotaxin Inhibitor
Solution B containing 100 mM Tris-HCl buffer (pH7.5), 150 mM NaCl, 5 mM MgCl2, and 0.05% Triton X-100 was prepared. Human autotaxin enzyme (purchased from R&D System) was diluted with Solution B, and 2.5 μl of which was added to a solution of test compound in DMSO. Furthermore, 2.5 μl of 200 μM 18:0 Lyso PC (purchased from Avanti Polar Lipids) in Solution B was added and allowed to react at room temperature for 2 hours. After completion of the reaction, 15 μl of the coline assay reagent (100 mM Tris-HCl buffer (pH7.5), 5 mM MgCl2, 77 μg/ml coline oxidase, 10 μg/ml peroxydase, 25 μM 10-acetyl-3,7-dihydroxyphenoxazine, and excess autotaxin inhibitor) was added and allowed to react at room temperature for 20 minutes. The fluorescent dye Resorufin, which was produced by the reaction, was detected. The fluorescence was detected using ViewLux (PerkinElmer, Inc.) with a excitation wavelength of 531 nm and a fluorescence wavelength of 598 nm.
The percent inhibition of the test compound was calculated by assuming the sample with no test compound as 0% inhibition and the sample with no enzyme as 100% inhibition, and the percent inhibitions at different concentrations of the test compound were plotted to obtain a concentration-dependent curve.

| SMILES | IC50 |
| --- | --- |
| CCCCC1CN(CC2CCOC2)C(=O)c2cc(-c3ccc(Cl)cc3)nn21 (centres unmarked) [Compound I-0269] | 0.01 to 0.1 µM |
| CCCCCC1CN(CC(=O)N2CCC(CC(C)C)C2)C(=O)c2cc(-c3ccc(Cl)cc3)nn21 (centres unmarked) [Compound I-0039] | 0.1 to 1 µM |
| CCCCCC1CN(CC(=O)N2CCCCC2C(=O)O)C(=O)c2cc(-c3ccc(Cl)cc3)nn21 (centres unmarked) [Compound I-0052] | < 0.01 µM |
| CCCOCC1CN(Cc2ccc(C#N)cc2)C(=O)c2cc(-c3ccc(Cl)cc3)nn21 (centres unmarked) [Compound I-0291] | 0.01 to 0.1 µM |
| CCCCC1CN(Cc2ccc(C#N)cc2)C(=O)c2cc(-c3ccc(Cl)cc3COC)nn21 (centres unmarked) [Compound I-0284] | ≥ 1 µM |
| CCCCCC1CN(CC(=O)OCC)C(=O)c2cc(-c3ccc(Cl)cc3)nn21 (centres unmarked) [Compound I-0002] | 0.01 to 0.1 µM |
| CCCCCC1CN(Cc2ccccc2C#N)C(=O)c2cc(-c3ccc(Cl)cc3)nn21 (centres unmarked) [Compound I-0129] | ≥ 1 µM |
| CCCCC1CN(Cc2ccc(C#N)cc2)C(=O)c2cc(-c3ccc(OC)cc3)nn21 (centres unmarked) [Compound I-0205] | 0.1 to 1 µM |
| CCCOCC1CN(CC(=O)OC(C)(C)C)C(=O)c2cc(-c3ccc(Cl)cc3)nn21 (centres unmarked) [Compound I-0250] | 0.01 to 0.1 µM |
| CCCCC[C@@H]1CN(CC(=O)N2CCC(C(=O)O)CC2)C(=O)c2cc(-c3ccc(Cl)cc3)nn21 [Compound I-0312] | 0.01 to 0.1 µM |
| CCCCCC1CN(Cc2cccc(C(=O)N3CCC(O)CC3)c2)C(=O)c2cc(-c3ccc(Cl)cc3)nn21 (centres unmarked) [Compound I-0137] | 0.01 to 0.1 µM |
| CCCCCC1CN(c2cccc(CC(=O)O)c2)C(=O)c2cc(-c3ccc(Cl)cc3)nn21 (centres unmarked) [Compound I-0202] | ≥ 1 µM |
| CNC(=O)Nc1cc(Cl)ccc1-c1cc2n(n1)[C@@H](C)CN(Cc1ccc(C#N)cc1)C2=O [Compound I-0342] | 0.1 to 1 µM |
| CCCCCC1CN(CC(=O)NCc2ccccc2C(=O)O)C(=O)c2cc(-c3ccc(Cl)cc3)nn21 (centres unmarked) [Compound I-0119] | 0.01 to 0.1 µM |
| CCCOCC1CN(CC(=O)NC2(CC#N)CC2)C(=O)c2cc(-c3ccc(Cl)cc3)nn21 (centres unmarked) [Compound I-0251] | 0.1 to 1 µM |
| CCCCCC1CN(CC(=O)N2CCCCC2CCN2CCOCC2)C(=O)c2cc(-c3ccc(Cl)cc3)nn21 (centres unmarked) [Compound I-0109] | ≥ 1 µM |
| CCCCC1CN(C(C(C)=O)c2ccccc2)C(=O)c2cc(-c3ccc(Cl)cc3)nn21 (centres unmarked) [Compound I-0262] | ≥ 1 µM |
| CCCCCC1CN(CC(=O)N2CCCCC2c2ccccc2)C(=O)c2cc(-c3ccc(Cl)cc3)nn21 (centres unmarked) [Compound I-0105] | 0.1 to 1 µM |
| CCCCCC1CN(CC(=O)N2CCCC[C@H]2C)C(=O)c2cc(-c3ccc(Cl)cc3)nn21 (some centres unmarked) [Compound I-0076] | 0.1 to 1 µM |
| CCCCCC1CN(CC(=O)N(C)c2ccc(C(=O)O)cc2)C(=O)c2cc(-c3ccc(Cl)cc3)nn21 (centres unmarked) [Compound I-0118] | ≥ 1 µM |
| CCCCCC1CN(CC(=O)NCC)C(=O)c2cc(-c3ccc(Cl)cc3)nn21 (centres unmarked) [Compound I-0108] | 0.1 to 1 µM |
| CCCCCC1CN(CC(=O)N2CCC(C(N)=O)CC2)C(=O)c2cc(-c3ccc(Cl)cc3)nn21 (centres unmarked) [Compound I-0033] | ≥ 1 µM |
| CCCCC1CN(Cc2ccc(C#N)cc2)C(=O)c2cc(-c3ccc(OC)c(CO)c3)nn21 (centres unmarked) [Compound I-0206] | ≥ 1 µM |

| SMILES | IC50 |
| --- | --- |
| CCCCC1CN(Cc2ccc(C#N)cc2)C(=O)c2cc(-c3ccc(Cl)cc3CC#N)nn21 (centres unmarked) [Compound I-0293] | 0.1 to 1 µM |
| CCCCC1CN(CC(=O)N(C)CC(O)c2ccccc2)C(=O)c2cc(-c3ccc(Cl)cc3)nn21 (centres unmarked) [Compound I-0228] | 0.1 to 1 µM |
| CCCCC1CN(CC(=O)N2CCO[C@H](C)C2)C(=O)c2cc(-c3ccc(Cl)cc3)nn21 (some centres unmarked) [Compound I-0240] | 0.1 to 1 µM |
| CCCCCC1CN(CC(=O)N2CCC(O)CC2)C(=O)c2cc(-c3ccc(Cl)cc3)nn21 (centres unmarked) [Compound I-0094] | 0.01 to 0.1 µM |
| CCCCC1CN(Cc2ccc(C#N)cc2)C(=O)c2cc(-c3ccc(Cl)cc3N)nn21 (centres unmarked) [Compound I-0281] | 0.1 to 1 µM |
| CCCCCC1CN(CC(=O)NC(Cc2ccccc2)C(=O)O)C(=O)c2cc(-c3ccc(Cl)cc3)nn21 (centres unmarked) [Compound I-0055] | < 0.01 µM |
| CCCCC1CN(C2COC2)C(=O)c2cc(-c3ccc(Cl)cc3)nn21 (centres unmarked) [Compound I-0274] | 0.1 to 1 µM |
| CCCCCC1CN(CC(=O)N2CCC(N(C)C)C2)C(=O)c2cc(-c3ccc(Cl)cc3)nn21 (centres unmarked) [Compound I-0034] | ≥ 1 µM |
| CCCCCC1CN(CC(=O)N2CCC(c3ccccc3)CC2)C(=O)c2cc(-c3ccc(Cl)cc3)nn21 (centres unmarked) [Compound I-0036] | 0.01 to 0.1 µM |
| CCCCCC1CN(CC(=O)N(C)CC)C(=O)c2cc(-c3ccc(Cl)cc3)nn21 (centres unmarked) [Compound I-0077] | 0.1 to 1 µM |
| CC(=O)Nc1cc(Cl)ccc1-c1cc2n(n1)[C@@H](C)CN(C[C@H]1CNC(=O)O1)C2=O [Compound I-0316] | 0.01 to 0.1 µM |
| C[C@H]1CN(Cc2ccc(C#N)cc2)C(=O)c2cc(-c3ccc(Cl)cc3)nn21 [Compound I-0165] | ≥ 1 µM |
| CCCCC1CN(CC(=O)N2CCC[C@@H]2C)C(=O)c2cc(-c3ccc(Cl)cc3)nn21 (some centres unmarked) [Compound I-0246] | 0.01 to 0.1 µM |
| CCCCCC1CN(CCO)C(=O)c2cc(-c3ccc(Cl)cc3)nn21 (centres unmarked) [Compound I-0006] | 0.1 to 1 µM |
| CCCCC1CN(CC(=O)N2CCCC(C(N)=O)C2)C(=O)c2cc(-c3ccc(Cl)cc3)nn21 (centres unmarked) [Compound I-0210] | 0.01 to 0.1 µM |
| CCCCC1CN(Cc2ccc(C#N)cc2)C(=O)c2cc(-c3ccc(Cl)cn3)nn21 (centres unmarked) [Compound I-0277] | 0.1 to 1 µM |
| CCCCCC1CN(CC(=O)Nc2ccccc2)C(=O)c2cc(-c3ccc(Cl)cc3)nn21 (centres unmarked) [Compound I-0087] | ≥ 1 µM |
| CCCCC1CN(CC(=O)NCCC(N)=O)C(=O)c2cc(-c3ccc(Cl)cc3)nn21 (centres unmarked) [Compound I-0222] | 0.1 to 1 µM |
| CC(=O)Nc1cc(C#N)ccc1-c1cc2n(n1)[C@@H](C)CN(CC(=O)N(C)CCC#N)C2=O [Compound I-0341] | 0.01 to 0.1 µM |
| C[C@H]1CN(CC(=O)C2CCCCN2C(=O)O)C(=O)c2cc(-c3ccc(Cl)cc3)nn21 (some centres unmarked) [Compound I-0158] | 0.1 to 1 µM |
| CCCCC1CN(c2ccc(CC(=O)O)cc2)C(=O)c2cc(-c3ccc(Cl)cc3)nn21 (centres unmarked) [Compound I-0286] | ≥ 1 µM |
| CCCCC1CN(CC(=O)OC(C)(C)C)C(=O)c2cc(-c3ccc(Cl)cc3)nn21 (centres unmarked) [Compound I-0283] | 0.1 to 1 µM |
| CCCCC1CN(Cc2ccc(C#N)cc2)C(=O)c2cc(C3=CCC(C(F)(F)F)CC3)nn21 (centres unmarked) [Compound I-0276] | 0.1 to 1 µM |

| SMILES | IC50 |
| --- | --- |
| CCCCCC1CN(Cc2ccc(C#N)cc2)C(=O)c2cc(-c3ccc(Cl)cc3)nn21 (centres unmarked) [Compound I-0132] | 0.01 to 0.1 µM |
| CCCCC1CN(CC(=O)NCc2ccnc(O)c2)C(=O)c2cc(-c3ccc(Cl)cc3)nn21 (centres unmarked) [Compound I-0236] | ≥ 1 µM |
| CC1(C)CN(CC(=O)N2CCC(C(=O)O)CC2)C(=O)c2cc(-c3ccc(Cl)cc3)nn21 [Compound I-0016] | ≥ 1 µM |
| CCCCCC1CN(Cc2ccc(OCCCN(C)C)cc2)C(=O)c2cc(-c3ccc(Cl)cc3)nn21 (centres unmarked) [Compound I-0134] | ≥ 1 µM |
| CCCCCC1CN(Cc2cccc(NC(C)=O)c2)C(=O)c2cc(-c3ccc(Cl)cc3)nn21 (centres unmarked) [Compound I-0142] | 0.1 to 1 µM |
| CCCCCC1CN(Cc2ccccc2OCCCN(C)C)C(=O)c2cc(-c3ccc(Cl)cc3)nn21 (centres unmarked) [Compound I-0138] | 0.1 to 1 µM |
| CCCCCC1CN(CNC(=O)OC(C)(C)C)C(=O)c2cc(-c3ccc(Cl)cc3)nn21 (centres unmarked) [Compound I-0005] | 0.1 to 1 µM |
| CCOC(=O)C1CCN(C(=O)CN2CC(C)(C)n3nc(-c4ccc(Cl)cc4)cc3C2=O)CC1 [Compound I-0015] | ≥ 1 µM |
| CCCCC1CN(CC(=O)OCC)C(=O)c2cc(-c3ccc(Cl)cc3)nn21 (centres unmarked) [Compound I-0294] | 0.01 to 0.1 µM |
| CCCCCC1CN(Cc2cc(C)cc(C(=O)O)c2)C(=O)c2cc(-c3ccc(Cl)cc3)nn21 (centres unmarked) [Compound I-0122] | 0.01 to 0.1 µM |
| CC(=O)Nc1cc(Cl)cnc1-c1cc2n(n1)[C@@H](C)CN(Cc1ccc(C#N)cc1)C2=O [Compound I-0337] | 0.01 to 0.1 µM |
| CCCCCC1CN(CC(=O)N2CCC(=O)CC2)C(=O)c2cc(-c3ccc(Cl)cc3)nn21 (centres unmarked) [Compound I-0113] | 0.01 to 0.1 µM |
| CC(=O)Nc1cc(Cl)c(F)cc1-c1cc2n(n1)[C@@H](C)CN(Cc1ccc(C#N)cc1)C2=O [Compound I-0330] | < 0.01 µM |
| CCCCCC1CN(CC(=O)N2CCCC(C(=O)O)C2)C(=O)c2cc(-c3ccc(Cl)cc3)nn21 (centres unmarked) [Compound I-0050] | 0.01 to 0.1 µM |
| CCCCCC1CN(CC(=O)N2CCCCC2CC)C(=O)c2cc(-c3ccc(Cl)cc3)nn21 (centres unmarked) [Compound I-0091] | 0.1 to 1 µM |
| CCCCC1CN(Cc2cccnc2)C(=O)c2cc(-c3ccc(Cl)cc3)nn21 (centres unmarked) [Compound I-0255] | 0.01 to 0.1 µM |
| CCCCCC1CNC(=O)c2cc(-c3ccc(Cl)cc3)nn21 (centres unmarked) [Compound I-0001] | ≥ 1 µM |
| CCCCCC1CN(CC(=O)N2CCC(C(=O)O)C2)C(=O)c2cc(-c3ccc(Cl)cc3)nn21 (centres unmarked) [Compound I-0066] | 0.01 to 0.1 µM |
| CCCCCC1CN(CC(=O)Nc2ccccc2C(=O)O)C(=O)c2cc(-c3ccc(Cl)cc3)nn21 (centres unmarked) [Compound I-0042] | 0.1 to 1 µM |
| CCCCCC1CN(CC(=O)NCC(=O)N(C)C)C(=O)c2cc(-c3ccc(Cl)cc3)nn21 (centres unmarked) [Compound I-0038] | 0.1 to 1 µM |
| CCCCC1CN(CC(=O)N2CCN(C(N)=O)CC2)C(=O)c2cc(-c3ccc(Cl)cc3)nn21 (centres unmarked) [Compound I-0217] | 0.1 to 1 µM |
| CCOC(=O)CN1C[C@@H](C)n2nc(-c3ccc(Cl)cc3)cc2C1=O [Compound I-0020] | ≥ 1 µM |
